ChEMBL document CHEMBL1126603, “Synthesis and pharmacokinetics of a dihydropyridine chemical delivery system for the antiimmunodeficiency virus agent dideoxycytidine” (J Med Chem, 1993)

Test system: MT4
Assay: Growth inhibition of HIV-1 in human lymphocyte MT-4 cells
Type: functional, cell-based

SMILES | IC50 [nM]
CN1C=CCC(C(=O)Nc2ccn(C3CCC(CO)O3)c(=O)n2)=C1 (centres undefined) | 1200
CN1C=CCC(C(=O)OCC2CCC(n3ccc(N)nc3=O)O2)=C1 (centres undefined) | 1200
CN1C=CCC(C(=O)Nc2ccn(C3CCC(COC(=O)C4=CN(C)C=CC4)O3)c(=O)n2)=C1 (centres undefined) | 1900
Nc1ccn([C@H]2CC[C@@H](CO)O2)c(=O)n1 (stereo in doubt; form 1) [ZALCITABINE] | 1000
